Consider 49 compounds from patent US10532985B2, “Heterocycle and carbocycle derivatives having TRKA inhibitory activity” (Shionogi & Co., Ltd., priority 2014, dated 2020).

pIC50: −log10 of the molar value. Where only a bound is given, the exact number is not on record here.

In one test the target is T1, human TrkA (Homo sapiens, UniProt P04629).
T1 construct: purchased Lifetechnologies PV3144
T1 sequence (P04629 33-796): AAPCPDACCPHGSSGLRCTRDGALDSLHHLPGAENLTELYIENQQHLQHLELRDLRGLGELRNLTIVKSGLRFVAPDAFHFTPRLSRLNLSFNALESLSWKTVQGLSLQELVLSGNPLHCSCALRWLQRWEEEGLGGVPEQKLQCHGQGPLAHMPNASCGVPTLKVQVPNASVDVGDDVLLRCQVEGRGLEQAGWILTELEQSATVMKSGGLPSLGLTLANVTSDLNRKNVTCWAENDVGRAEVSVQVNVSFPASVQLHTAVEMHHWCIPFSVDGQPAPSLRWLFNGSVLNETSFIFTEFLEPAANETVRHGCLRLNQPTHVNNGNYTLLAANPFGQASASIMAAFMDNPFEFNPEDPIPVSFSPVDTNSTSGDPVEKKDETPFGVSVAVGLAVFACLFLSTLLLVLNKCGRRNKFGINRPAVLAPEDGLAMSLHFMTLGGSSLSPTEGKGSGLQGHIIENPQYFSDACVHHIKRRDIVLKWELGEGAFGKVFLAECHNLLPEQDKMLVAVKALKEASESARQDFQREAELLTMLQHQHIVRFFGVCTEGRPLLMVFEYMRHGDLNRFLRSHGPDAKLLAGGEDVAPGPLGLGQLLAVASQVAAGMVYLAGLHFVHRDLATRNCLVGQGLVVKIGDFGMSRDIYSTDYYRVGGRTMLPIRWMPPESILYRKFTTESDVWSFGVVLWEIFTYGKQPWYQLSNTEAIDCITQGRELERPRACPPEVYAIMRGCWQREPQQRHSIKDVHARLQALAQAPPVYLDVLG
Briefly: Test Example 2: Human TrkA Inhibition Assay. To be noted: Test Example 2; human TrkA 2.5 nmol/L, ATP 500 μmol/L, 90 min at room temperature; read-out: TrkA inhibitory activity IC50. Type of test: biochemical. As to the method:
After the incubation for 90 min at room temperature, ten μL of termination buffer (100 mmol/L HEPES, 40 mmol/L ethylenediaminetetraacetic acid (EDTA), 10 mmol/L magnesium chloride, 0.003 vol % Brij-35, 0.004 vol % Tween20, 1 mmol/L DTT and 0.16 vol % Coating Reagent 3) was added in each well to stop the enzyme reaction. Fluorescent intensities (FI) of phosphorylated and non-phosphorylated fluorescent substrates were measured by LabChip EZReader II (Caliper LifeSciences, Inc.) and conversion ratio (CR) was calculated by the following formula-1. The CR in the well applied with DMSO alone was used as a negative control and the CR in the well without applying TrkA was used as a positive control. The inhibitory effect of each compound on TrkA phosphorylation was calculated by the following formula-2. CR (%)=(FI of phosphorylated substrate/(FI of phosphorylated substrate+FI of non-phosphorylated substrate))×100 (Formula-1) Inhibitory effect on TrkA phosphorylation (%)=(1−(CR in compound treated well−CR in positive control)/(CR in negative control−CR in positive control))×100. (Formula-2)
Regarding `COCCC1(C)C[C@@H](NC(=O)Nc2c(C)c(-c3cnn(C)c3)nn2-c2ccccc2)[C@H](c2ccccc2)C1` (stereo partly shown) [Compound I-132], the pIC50 was 6.32.
Turning to `COCC(CN1CC(F)(F)C1)N1C[C@@H](NC(=O)Nc2c(C)c(-c3cnn(C)c3)nn2-c2ccccc2)[C@H](c2ccc(F)c(F)c2)C1` (stereo partly shown) [Compound I-106], the pIC50 is 7.10.
In the case of `Cc1c(-c2cnn(C)c2)nn(-c2ccccc2)c1NC(=O)N[C@@H]1CN(CC(F)(F)F)C(=O)[C@H]1c1ccccc1` (racemic) [Compound I-44], the pIC50 is 6.15.

Still in this test, the particulars now being: human TrkA inhibition, Test Example 2; class symbols A/B/C; read-out: IC50_nM.
Consider `COCCN1C[C@H](NC(=O)Nc2c(C)c(-c3cnn(C)c3)nn2-c2ccccc2)[C@H](c2ccc(F)c(F)c2)C1` (racemic) [Compound I-6], for which the pIC50 was less than 6.00.
Still for that read-out and setting: with `COCC(CNS(C)(=O)=O)N1C[C@@H](NC(=O)Nc2c(C)c(-c3cnn(C)c3)nn2-c2ccccc2)[C@H](c2ccc(F)c(F)c2)C1` (stereo partly shown) [Compound I-140] the figure was 6.00 to 7.00.
The same measure, in the same setting: under `Cc1c(-c2cnn(C)c2)nn(-c2ccccc2)c1NC(=O)N[C@@H]1CN(Cc2ccon2)C[C@H]1c1ccc(F)c(F)c1` [Compound I-98] stands more than 7.00; under `Cc1c(-c2cnn(C)c2)nn(-c2ccccc2)c1NC(=O)N[C@@H]1CN(CCCS(C)(=O)=O)C[C@H]1c1ccc(F)c(F)c1` [Compound I-64], less than 6.00; under `CC(=O)N1C[C@@H](NC(=O)Nc2c(C)c(-c3cnn(C)c3)nn2-c2ccccc2)[C@H](c2ccc(F)c(F)c2)C1` [Compound I-28], less than 6.00.
The same measure, in the same setting: with `COCCN1C[C@@H](NC(=O)Nc2c(C)c(-c3cnn(C)c3)nn2-c2ccccc2)[C@H](c2cccc(-c3ccccc3C#N)c2)C1` (racemic) [Compound I-55] the figure was 6.00 to 7.00; with `Cc1c(-c2cnn(C)c2)nn(-c2ccccc2)c1NC(=O)N[C@@H]1CN(Cc2ccoc2)C[C@H]1c1ccc(F)c(F)c1` [Compound I-118], 6.00 to 7.00.
Turning to `Cc1c(-c2cnn(C)c2)nn(-c2ccccc2)c1NC(=O)N[C@@H]1CN(CC2CCCCO2)C[C@H]1c1ccc(F)c(F)c1` (stereo partly shown) [Compound I-43], the pIC50 was less than 6.00.
Same read-out and setting: with `COCOC1C[C@@H](NC(=O)Nc2c(C)c(-c3cnn(C)c3)nn2-c2ccccc2)[C@H](c2ccccc2)C1` (relative stereo) [Compound I-121] the figure was 6.00 to 7.00; with `COCCN1C[C@@H](NC(=O)Nc2c(C)c(-c3cnn(C)c3)nn2-c2ccccc2)[C@H](c2ccc3c(c2)OCCO3)C1` (racemic) [Compound I-128], 6.00 to 7.00; with `Cc1c(-c2cnn(C)c2)nn(-c2ccccc2)c1NC(=O)N[C@@H]1CN(CCS(C)(=O)=O)C[C@H]1c1ccc(F)c(F)c1` [Compound I-46], less than 6.00.
Still for that read-out and setting: with `Cc1c(-c2cnn(C)c2)nn(-c2ccccc2)c1NC(=O)N[C@@H]1CN(CCNS(C)(=O)=O)C[C@H]1c1ccc(F)c(F)c1` [Compound I-42] the figure was 6.00 to 7.00.
Turning to `COCCN1[C@@H]2CCC[C@H]1[C@@H](c1ccc(F)c(F)c1)[C@@H]2NC(=O)Nc1c(C)c(-c2cnn(C)c2)nn1-c1ccccc1` (racemic) [Compound I-12], the pIC50 is less than 6.00.
In the case of `Cc1c(-c2cnn(C)c2)nn(-c2ccccc2)c1NC(=O)N[C@@H]1CN(S(C)(=O)=O)C[C@H]1c1ccc(F)c(F)c1` [Compound I-45], the pIC50 is less than 6.00.
On the same count and under the same terms, under `COCC(CN1CCC1)N1C[C@@H](NC(=O)Nc2c(C)c(-c3cnn(C)c3)nn2-c2ccccc2)[C@H](c2ccc(F)c(F)c2)C1` (stereo partly shown) [Compound I-119] stands 6.00 to 7.00.
The same measure, in the same setting: with `COC(=O)NCCN1C[C@@H](NC(=O)Nc2c(C)c(-c3cnn(C)c3)nn2-c2ccccc2)[C@H](c2ccc(F)c(F)c2)C1` [Compound I-41] the figure was less than 6.00; with `COCCN1CCC(c2ccc(F)c(F)c2)C(NC(=O)Nc2c(C)c(-c3cnn(C)c3)nn2-c2ccccc2)C1` (stereo not shown) [Compound I-4], less than 6.00; with `COCCN1C[C@@H](NC(=O)Nc2c(C)c(-c3cnn(C)c3)nn2-c2ccccc2)[C@H](C2CCC(F)(F)CC2)C1` (racemic) [Compound I-33], 6.00 to 7.00.
On the same count and under the same terms, under `CCON=C1C[C@@H](NC(=O)Nc2c(C)c(-c3cnn(C)c3)nn2-c2ccccc2)[C@H](c2ccccc2)C1` [Compound I-120] stands 6.00 to 7.00; under `COCC(Cn1ccnc1)N1C[C@@H](NC(=O)Nc2c(C)c(-c3cnn(C)c3)nn2-c2ccccc2)[C@H](c2ccc(F)c(F)c2)C1` (stereo partly shown) [Compound I-127], 6.00 to 7.00; under `COCCN1C[C@@H](NC(=O)Nc2c(C)c(-c3cnn(C)c3)nn2-c2ccccc2)[C@H](c2cccc3c2OCO3)C1` (racemic) [Compound I-75], 6.00 to 7.00.
As to `COC1CCCCC1N1C[C@@H](NC(=O)Nc2c(C)c(-c3cnn(C)c3)nn2-c2ccccc2)[C@H](c2ccc(F)c(F)c2)C1` (stereo partly shown) [Compound I-176], the pIC50 is less than 6.00.
Same read-out and setting: under `CC(=O)NCCN1C[C@@H](NC(=O)Nc2c(C)c(-c3cnn(C)c3)nn2-c2ccccc2)[C@H](c2ccc(F)c(F)c2)C1` [Compound I-40] stands less than 6.00.
On the same count and under the same terms, under `COC(=O)[C@@H]1C[C@@H](NC(=O)Nc2c(C)c(-c3cnn(C)c3)nn2-c2ccccc2)[C@H](c2ccc(F)c(F)c2)N1` (racemic) [Compound I-47] stands less than 6.00; under `Cc1c(-c2cnn(C)c2)nn(-c2ccccc2)c1NC(=O)N[C@@H]1CN(C=O)C[C@H]1c1ccc(F)c(F)c1` [Compound I-35], less than 6.00; under `COCC(CNC(N)=O)N1C[C@@H](NC(=O)Nc2c(C)c(-c3cnn(C)c3)nn2-c2ccccc2)[C@H](c2ccc(F)c(F)c2)C1` (stereo partly shown) [Compound I-111], more than 7.00.
Regarding `Cc1c(-c2cnn(C)c2)nn(-c2ccccc2)c1NC(=O)N[C@@H]1CN(C(C)c2ccco2)C[C@H]1c1ccc(F)c(F)c1` (stereo partly shown) [Compound I-101], the pIC50 is more than 7.00.
On the same count and under the same terms, with `Cc1c(-c2cnn(C)c2)nn(-c2ccccc2)c1NC(=O)N[C@@H]1CN(Cc2nccs2)C[C@H]1c1ccc(F)c(F)c1` [Compound I-97] the figure was more than 7.00; with `Cc1c(-c2cnn(C)c2)nn(-c2ccccc2)c1NC(=O)N[C@@H]1CN(CCCc2ccccc2)C[C@H]1c1ccc(F)c(F)c1` [I 63], less than 6.00.
Consider `COCCN1C[C@@H](NC(=O)Nc2c(C)c(-c3cnn(C)c3)nn2-c2ccccc2)[C@@]2(CCc3ccccc32)C1` (racemic) [Compound I-7], for which the pIC50 was less than 6.00.
Still for that read-out and setting: under `COCCN1C[C@@H](NC(=O)Nc2c(C)c(-c3cnn(C)c3)nn2-c2ccccc2)[C@H](c2cccc(-c3cncnc3)c2)C1` (racemic) [Compound I-59] stands less than 6.00; under `Cc1c(-c2cnn(C)c2)nn(-c2ccccc2)c1NC(=O)N[C@@H]1CN(c2nnn(C)n2)C[C@H]1c1ccc(F)c(F)c1` [Compound I-151], less than 6.00.
Same read-out and setting: with `COCCN1C[C@@H](NC(=O)Nc2c(C)c(-c3cnn(C)c3)nn2-c2ccccc2)[C@H](c2cc3ccccc3o2)C1` (racemic) [Compound I-134] the figure was 6.00 to 7.00.
Same read-out and setting: with `COCCN1C[C@@H](NC(=O)Nc2c(C)c(-c3cnn(C)c3)nn2-c2ccccc2)[C@H](c2cccc(C(=O)OC)c2)C1` (racemic) [Compound I-19] the figure was less than 6.00.
Take `COCC(CNO)N1C[C@@H](NC(=O)Nc2c(C)c(-c3cnn(C)c3)nn2-c2ccccc2)[C@H](c2ccc(F)c(F)c2)C1` (stereo partly shown) [Compound I-92]: the pIC50 is more than 7.00.
On the same count and under the same terms, under `CNC(=O)C(COC)N1C[C@@H](NC(=O)Nc2c(C)c(-c3cnn(C)c3)nn2-c2ccccc2)[C@H](c2ccc(F)c(F)c2)C1` (stereo partly shown) [Compound I-137] stands 6.00 to 7.00.
The same measure, in the same setting: under `Cc1c(-c2cnn(C)c2)nn(-c2ccccc2)c1NC(=O)N[C@@H]1CN(CCNC(=O)C(F)(F)F)C[C@H]1c1ccc(F)c(F)c1` [Compound I-72] stands less than 6.00; under `COCCN1C[C@@H](NC(=O)Nc2c(C)c(-c3cnn(C)c3)nn2-c2ccccc2)[C@H](c2cccc(-c3ccc(C(=O)OC)cc3)c2)C1` (racemic) [Compound I-54], less than 6.00; under `Cc1c(-c2cnn(C)c2)nn(-c2ccccc2)c1NC(=O)N[C@@H]1CC2(CC(O)C2)C[C@H]1c1ccccc1` (mixture of isomers) [Compound I-172], less than 6.00.
Same read-out and setting: with `Cc1c(-c2cnn(C)c2)nn(-c2ccccc2)c1NC(=O)N[C@@H]1CN(C2CCCCC2)C[C@H]1c1ccc(F)c(F)c1` [Compound I-143] the figure was less than 6.00; with `Cc1c(-c2cnn(C)c2)nn(-c2ccccc2)c1NC(=O)N[C@@H]1CCC[C@H]1c1ccccc1` (racemic) [Compound I-13], less than 6.00.
`COCCN1C[C@@H](NC(=O)Nc2c(C)c(-c3cnn(C)c3)nn2-c2ccccc2)[C@H](c2ccc3nccn3c2)C1` (racemic) [Compound I-165]: the pIC50 was less than 6.00.
Regarding `COCC(C(N)=O)N1C[C@@H](NC(=O)Nc2c(C)c(-c3cnn(C)c3)nn2-c2ccccc2)[C@H](c2ccc(F)c(F)c2)C1` (stereo partly shown) [Compound I-133], the pIC50 is 6.00 to 7.00.
The same measure, in the same setting: under `Cc1c(-c2cnn(C)c2)nn(-c2ccccc2)c1NC(=O)N[C@@H]1CN(CCc2ccccc2)C[C@H]1c1ccc(F)c(F)c1` [Compound I-62] stands less than 6.00; under `Cc1c(-c2cnn(C)c2)nn(-c2ccccc2)c1NC(=O)N[C@@H]1C[C@@H](C)N[C@H]1c1ccc(F)c(F)c1` (racemic) [Compound I-77], less than 6.00; under `CCOC(=O)C=C1C[C@@H](NC(=O)Nc2c(C)c(-c3cnn(C)c3)nn2-c2ccccc2)[C@H](c2ccccc2)C1` [Compound I-126], 6.00 to 7.00.
